Test results from PubChem BioAssay (NCI).
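Abbreviation: GI50, concentration required for 50% inhibition of growth. At the TGI there is no net growth.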

Experiments:
Assay in all cases: DTP human tumour cell line panel, 384-well format
OVCAR-5 ovarian = system: OVCAR-5 ovarian
DU-145 prostate = system: DU-145 prostate
A549 NSCLC = system: A549 NSCLC
A498 renal = system: A498 renal
CCRF-CEM leukemia = system: CCRF-CEM leukemia
ACHN renal = system: ACHN renal
HCC-2998 colon = system: HCC-2998 colon
PC-3 prostate = system: PC-3 prostate
MCF7 breast = system: MCF7 breast
SF-539 CNS = system: SF-539 CNS
HCT-116 colon = system: HCT-116 colon
CAKI-1 renal = system: CAKI-1 renal
HCT-15 colon = system: HCT-15 colon
NCI-H460 NSCLC = system: NCI-H460 NSCLC
T-47D breast = system: T-47D breast
LOX IMVI melanoma = system: LOX IMVI melanoma
SF-295 CNS = system: SF-295 CNS
SK-OV-3 ovarian = system: SK-OV-3 ovarian
OVCAR-4 ovarian = system: OVCAR-4 ovarian
KM12 colon = system: KM12 colon
SN12C renal = system: SN12C renal
HS 578T breast = system: HS 578T breast
MDA-MB-435 melanoma = system: MDA-MB-435 melanoma
OVCAR-8 ovarian = system: OVCAR-8 ovarian
786-0 renal = system: 786-0 renal
M14 melanoma = system: M14 melanoma
HOP-92 NSCLC = system: HOP-92 NSCLC
NCI-H522 lung = system: NCI-H522 lung
TK-10 renal = system: TK-10 renal
NCI/ADR-RES ovarian = system: NCI/ADR-RES ovarian
SK-MEL-5 melanoma = system: SK-MEL-5 melanoma
MDA-MB-231 breast = system: MDA-MB-231 breast
HOP-62 NSCLC = system: HOP-62 NSCLC
UACC-62 melanoma = system: UACC-62 melanoma
UACC-257 melanoma = system: UACC-257 melanoma
SW-620 colon = system: SW-620 colon
SR leukemia = system: SR leukemia
BT-549 breast = system: BT-549 breast
NCI-H226 lung = system: NCI-H226 lung
COLO 205 colon = system: COLO 205 colon
RPMI-8226 leukemia = system: RPMI-8226 leukemia
SNB-19 CNS = system: SNB-19 CNS
EKVX NSCLC = system: EKVX NSCLC
SF-268 CNS = system: SF-268 CNS
SK-MEL-28 melanoma = system: SK-MEL-28 melanoma
NCI-H23 lung = system: NCI-H23 lung
NCI-H322M lung = system: NCI-H322M lung
SNB-75 CNS = system: SNB-75 CNS
MDA-MB-468 breast = system: MDA-MB-468 breast
MALME-3M melanoma = system: MALME-3M melanoma
IGROV1 ovarian = system: IGROV1 ovarian
HL-60(TB) leukemia = system: HL-60(TB) leukemia
RXF 393 renal = system: RXF 393 renal
MOLT-4 leukemia = system: MOLT-4 leukemia
HT29 colon = system: HT29 colon
OVCAR-3 ovarian = system: OVCAR-3 ovarian
UO-31 renal = system: UO-31 renal
U251 glioblastoma = system: U251 glioblastoma

Q: What does the source list for `C[C@H](Nc1ncnc2nc[nH]c12)c1cc2cccc(Cl)c2c(=O)n1-c1ccccc1`?
A: GI50 (OVCAR-5 ovarian): 32.9 µM; TGI (OVCAR-5 ovarian): > 100 µM; GI50 (DU-145 prostate): 24.6 µM; TGI (DU-145 prostate): > 100 µM; GI50 (A549 NSCLC): 14.5 µM; TGI (A549 NSCLC): > 90.4 µM; GI50 (A498 renal): 1.09 µM; TGI (A498 renal): 12.8 µM; GI50 (CCRF-CEM leukemia): 4.6 µM; TGI (CCRF-CEM leukemia): 90.7 µM; GI50 (ACHN renal): 16.8 µM; TGI (ACHN renal): > 100 µM; GI50 (HCC-2998 colon): 29.7 µM; TGI (HCC-2998 colon): 92.1 µM; GI50 (PC-3 prostate): 1.46 µM; TGI (PC-3 prostate): > 79.5 µM; GI50 (MCF7 breast): 4.31 µM; TGI (MCF7 breast): > 100 µM; GI50 (SF-539 CNS): 19.7 µM; TGI (SF-539 CNS): > 100 µM; GI50 (HCT-116 colon): 28.7 µM; TGI (HCT-116 colon): > 100 µM; GI50 (CAKI-1 renal): 4.09 µM; TGI (CAKI-1 renal): > 80 µM; GI50 (HCT-15 colon): 35.2 µM; TGI (HCT-15 colon): > 100 µM; GI50 (NCI-H460 NSCLC): 15.9 µM; TGI (NCI-H460 NSCLC): > 100 µM; GI50 (T-47D breast): 1.6 µM; TGI (T-47D breast): 17.6 µM; GI50 (LOX IMVI melanoma): 32.5 µM; TGI (LOX IMVI melanoma): > 100 µM; GI50 (SF-295 CNS): 4.95 µM; TGI (SF-295 CNS): > 40.2 µM; GI50 (SK-OV-3 ovarian): 14.3 µM; TGI (SK-OV-3 ovarian): > 79.2 µM; GI50 (OVCAR-4 ovarian): 11.4 µM; TGI (OVCAR-4 ovarian): 90.6 µM; GI50 (KM12 colon): 43.2 µM; TGI (KM12 colon): > 100 µM; GI50 (SN12C renal): 3.25 µM; TGI (SN12C renal): > 100 µM; GI50 (HS 578T breast): 3.41 µM; TGI (HS 578T breast): 27.7 µM; GI50 (MDA-MB-435 melanoma): > 100 µM; TGI (MDA-MB-435 melanoma): > 100 µM; GI50 (OVCAR-8 ovarian): 25.8 µM; TGI (OVCAR-8 ovarian): > 100 µM; GI50 (786-0 renal): 2.8 µM; TGI (786-0 renal): > 64.9 µM; GI50 (M14 melanoma): 23.9 µM; TGI (M14 melanoma): > 100 µM; GI50 (HOP-92 NSCLC): 2.31 µM; TGI (HOP-92 NSCLC): 77.7 µM; GI50 (NCI-H522 lung): 16.8 µM; TGI (NCI-H522 lung): > 83.3 µM; GI50 (TK-10 renal): 15 µM; TGI (TK-10 renal): > 100 µM; GI50 (NCI/ADR-RES ovarian): > 100 µM; TGI (NCI/ADR-RES ovarian): > 100 µM; GI50 (SK-MEL-5 melanoma): 18.2 µM; TGI (SK-MEL-5 melanoma): > 85.1 µM; GI50 (MDA-MB-231 breast): 25.5 µM; TGI (MDA-MB-231 breast): > 100 µM; GI50 (HOP-62 NSCLC): 30.7 µM; TGI (HOP-62 NSCLC): > 100 µM; GI50 (UACC-62 melanoma): 5.86 µM; TGI (UACC-62 melanoma): > 64.2 µM; GI50 (UACC-257 melanoma): 27 µM; TGI (UACC-257 melanoma): > 100 µM; GI50 (SW-620 colon): > 100 µM; TGI (SW-620 colon): > 100 µM; GI50 (SR leukemia): 14 µM; TGI (SR leukemia): 40.1 µM; GI50 (BT-549 breast): 1.29 µM; TGI (BT-549 breast): 36.6 µM; GI50 (NCI-H226 lung): 33.4 µM; TGI (NCI-H226 lung): > 100 µM; GI50 (COLO 205 colon): 42.8 µM; TGI (COLO 205 colon): > 100 µM; GI50 (RPMI-8226 leukemia): 25.2 µM; TGI (RPMI-8226 leukemia): > 78.7 µM; GI50 (SNB-19 CNS): 44.5 µM; TGI (SNB-19 CNS): > 100 µM; GI50 (EKVX NSCLC): 15.2 µM; TGI (EKVX NSCLC): > 100 µM; GI50 (SF-268 CNS): 24.7 µM; TGI (SF-268 CNS): > 84.7 µM; GI50 (SK-MEL-28 melanoma): 8.44 µM; TGI (SK-MEL-28 melanoma): 98.8 µM; GI50 (NCI-H23 lung): 25.9 µM; TGI (NCI-H23 lung): > 100 µM; GI50 (NCI-H322M lung): 15.5 µM; TGI (NCI-H322M lung): > 72 µM; GI50 (SNB-75 CNS): 0.103 µM; TGI (SNB-75 CNS): 2.41 µM; GI50 (MDA-MB-468 breast): 1.23 µM; TGI (MDA-MB-468 breast): 14.9 µM; GI50 (MALME-3M melanoma): 6.18 µM; TGI (MALME-3M melanoma): 49.8 µM; GI50 (IGROV1 ovarian): 2.43 µM; TGI (IGROV1 ovarian): 10.2 µM; GI50 (HL-60(TB) leukemia): 3.53 µM; TGI (HL-60(TB) leukemia): > 36.4 µM; GI50 (RXF 393 renal): 0.104 µM; TGI (RXF 393 renal): 1.3 µM; GI50 (MOLT-4 leukemia): 2.37 µM; TGI (MOLT-4 leukemia): 12.5 µM; GI50 (HT29 colon): 18.8 µM; TGI (HT29 colon): > 100 µM; GI50 (OVCAR-3 ovarian): 3.65 µM; TGI (OVCAR-3 ovarian): > 48.4 µM; GI50 (UO-31 renal): 3.89 µM; TGI (UO-31 renal): > 93.1 µM; GI50 (U251 glioblastoma): 47.3 µM; TGI (U251 glioblastoma): > 100 µM
